Common to all, as to type: binding
The target in assay [1] is T1, Athe_0598 (Caldicellulosiruptor bescii, UniProt A0ABY1SBM3).
T1 construct: gene SAMN05216240_2512; IMAC purified after 68 °C heat treatment
The experiment in a line: isothermal titration calorimetry. The following applies: 25 °C; 50 mM HEPES, 300 mM NaCl, pH 7.0 (storage and characterization buffer); single-site model. The text has this:
isothermal titration calorimetry on Athe_0598
(Isothermal titration calorimetry measures the heat released or taken up as one component is titrated into another.)

The target in assay [2] is T1, Athe_0598. Briefly: differential scanning calorimetry. To be noted: 5 mM sugar, 2 mg/mL protein, 50 mM HEPES, 300 mM NaCl, pH 7.0; 4 °C/min. The text has this:
differential scanning calorimetry on Athe_0598
(In general: DSC measures the heat that a sample takes up or gives off during a temperature scan.)

In assay [3] the target is T2, Athe_0597 (Caldicellulosiruptor bescii, UniProt A0ABY1SBW7).
T2 construct: gene SAMN05216240_2513; IMAC purified after 68 °C heat treatment
The experiment in a line: differential scanning calorimetry. To be noted: 5 mM sugar, 2 mg/mL protein, 50 mM HEPES, 300 mM NaCl, pH 7.0; 4 °C/min. The text has this: differential scanning calorimetry on Athe_0597

Assay [4] concerns the target T2, Athe_0597. The experiment in a line: isothermal titration calorimetry. The following applies: 25 °C; 50 mM HEPES, 300 mM NaCl, pH 7.0 (storage and characterization buffer); single-site model. The text has this: isothermal titration calorimetry on Athe_0597

T2 sequence (A0ABY1SBW7 entry or part of it): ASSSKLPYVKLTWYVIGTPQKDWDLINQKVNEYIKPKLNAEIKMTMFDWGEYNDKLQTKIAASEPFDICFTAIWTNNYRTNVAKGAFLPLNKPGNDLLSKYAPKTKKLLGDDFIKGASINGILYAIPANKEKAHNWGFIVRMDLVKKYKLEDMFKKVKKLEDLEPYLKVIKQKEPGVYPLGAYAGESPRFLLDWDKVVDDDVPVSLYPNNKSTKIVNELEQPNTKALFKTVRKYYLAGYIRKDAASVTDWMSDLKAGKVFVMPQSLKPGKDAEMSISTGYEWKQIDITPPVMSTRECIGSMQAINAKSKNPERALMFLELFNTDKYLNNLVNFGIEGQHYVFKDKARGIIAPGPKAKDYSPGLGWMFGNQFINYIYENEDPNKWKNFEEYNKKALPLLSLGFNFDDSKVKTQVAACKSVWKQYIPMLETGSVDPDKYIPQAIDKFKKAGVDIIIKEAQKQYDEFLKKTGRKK
T1 sequence (A0ABY1SBM3 entry or part of it): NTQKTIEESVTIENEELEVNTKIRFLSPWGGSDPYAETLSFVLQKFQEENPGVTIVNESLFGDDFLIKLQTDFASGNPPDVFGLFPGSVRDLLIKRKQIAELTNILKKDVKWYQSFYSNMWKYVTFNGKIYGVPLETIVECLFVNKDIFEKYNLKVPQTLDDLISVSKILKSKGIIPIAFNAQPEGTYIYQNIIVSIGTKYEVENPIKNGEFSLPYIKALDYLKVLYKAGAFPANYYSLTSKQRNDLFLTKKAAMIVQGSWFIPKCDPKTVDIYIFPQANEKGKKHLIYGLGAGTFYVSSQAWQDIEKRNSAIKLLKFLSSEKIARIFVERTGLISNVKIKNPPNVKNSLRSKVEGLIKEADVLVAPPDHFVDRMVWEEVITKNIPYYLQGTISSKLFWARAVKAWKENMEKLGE

Broadly, the Kd is the free concentration of one partner at which half of the binding sites on the other are occupied at equilibrium, for simple one-to-one binding. Lower therefore signals higher affinity. Turning to `OC[C@H]1O[C@@H](O[C@H]2[C@H](O)[C@@H](O)C(O)O[C@@H]2CO)[C@H](O)[C@@H](O)[C@@H]1O` (stereo partly shown) [G2, cellobiose], the equilibrium dissociation constant (Kd) at Athe_0598 [1] is 2840 ± 360 nM; on Athe_0597 [4], 228 ± 100 nM. Also, the figures for the “ΔTm (°C)” value on Athe_0598 [2] and on Athe_0597 [3] were 8.53 °C and 7.57 °C, respectively.
With `OC[C@H]1O[C@@H](O[C@H]2[C@H](O)[C@@H](O)[C@H](O[C@H]3[C@H](O)[C@@H](O)C(O)O[C@@H]3CO)O[C@@H]2CO)[C@H](O)[C@@H](O)[C@@H]1O` (stereo partly shown) [G3, cellotriose], the “ΔTm (°C)” value on Athe_0597 [3] stood at 6.89 °C. The molecule further registered a Kd on Athe_0597 [4] of 942 ± 120 nM.
The corresponding values for `OC[C@H]1O[C@@H](O[C@H]2[C@H](O)[C@@H](O)[C@H](O[C@H]3[C@H](O)[C@@H](O)[C@H](O[C@H]4[C@H](O)[C@@H](O)C(O)O[C@@H]4CO)O[C@@H]3CO)O[C@@H]2CO)[C@H](O)[C@@H](O)[C@@H]1O` (stereo partly shown) [G4, cellotetraose] are 9.30 °C and 1970 ± 520 nM.
The corresponding values for `OC[C@H]1O[C@@H](O[C@H]2[C@H](O)[C@@H](O)[C@H](O[C@H]3[C@H](O)[C@@H](O)[C@H](O[C@H]4[C@H](O)[C@@H](O)[C@H](O[C@H]5[C@H](O)[C@@H](O)C(O)O[C@@H]5CO)O[C@@H]4CO)O[C@@H]3CO)O[C@@H]2CO)[C@H](O)[C@@H](O)[C@@H]1O` (stereo partly shown) [G5, cellopentaose] are 8.72 °C and 1180 ± 120 nM.

(Values after publication PMC12838199, “A highly conserved ABC transporter mediates cello-oligosaccharide uptake in the extremely thermophilic, lignocellulolytic bacterium Anaerocellum bescii (f. Caldicellulosiruptor bescii)” (Applied and Environmental Microbiology, 2025).)
